# Tests used:
# Type in all cases: binding
# AZT antibodies = assay: Immunological activity / tracer performance in FPIA for AZT (qualitative); settings: for inhibition in FPIA for AZT: inhibitor of polarization
# Procedure: (§1) An equal volume of precipitation reagent was added per microcentrifuge tube. The tubes were centrifuged at greater than 9,000×g for 1 minute.
# (§2) (2) A 17.5 ul sample of each serum extract was brought to approximately pH 7-8 by the addition of buffer.
# (§3) (4) After an appropriate incubation time, the polarization of each reaction mixture was determined using a polarization spectrofluorimeter.
# [1] = tested on: antisera to AZT, Rabbit 1 (immunized with AZT-3-V:BSA); assay: FPIA comparison of tracers, antiserum of Rabbit 1 (Table 1); settings: for Polarization Units (P × 1000): 1 pmole of tracer, antiserum at the given titer; for ED50 AZT: concentration of AZT giving 50% reduction in polarization of this tracer relative to 0 tube; for Titer [Ab]: dilution of antiserum required to obtain the given polarization units with 1 pmole of tracer
# Procedure: (§4) The immunogen (1 mg in 1 ml) was emulsified with an equal volume of Freund's Complete Adjuvant and injected intradermally into each of two female albino rabbits. The process was repeated in two weeks. Two weeks later, monthly subcutaneous booster injections were begun with 0.5 mg in 0.5 ml of the immunogen and 0.5 ml of Freund's Incomplete Adjuvant per animal. The rabbits were bled biweekly by a marginal ear vein technique beginning six weeks after the primary immunization. The blood collected was refrigerated, allowing clots to form, and the supernatant (antiserum) retained. The antiserum from each rabbit was collected and stored, either at -20° C. without preservative, or at 4° C. after addition of sodium azide to a final concentration of 0.1%. The same schedule was followed for each immunogen. Rabbits immunized produced antibodies to AZT.
# (§5) Fluorescence Polarization Immunoassay for AZT
# as §1, §2, §3
# (§6) As further illustration of the invention polyclonal antibodies were raised in two rabbits by immunization with the conjugate of Example 4 (AZT-3-V:BSA) as is more fully described in Example 45 and stored at 4° C. with 0.1% sodium azide. A number of tracers were then compared as to their performance in FPIA using the antisera raised from two rabbits.
# (§7) ^(1) TITER was defined as the dilution of antiserum (i.e., [Ab])
# (§8) required to obtain the given polarization units (P × 1000) with 1
# (§9) required to give a 50% reduction in polarization relative to a control (0
# (§10) tube) containing no unlabeled AZT.
# [2] = tested on: antisera to AZT, Rabbit 2 (immunized with AZT-3-V:BSA); assay: FPIA comparison of tracers, antiserum of Rabbit 2 (Table 1); settings: for Polarization Units (P × 1000): 1 pmole of tracer, antiserum at the given titer; for ED50 AZT: concentration of AZT giving 50% reduction in polarization of this tracer relative to 0 tube; for Titer [Ab]: dilution of antiserum required to obtain the given polarization units with 1 pmole of tracer
# Procedure: as §4, §5, §1, §2, §3, §6, §7, §8, §9, §10
Compound,immunological activity in FPIA for AZT (AZT antibodies; qualitative),"""cross-reactivity"" relative to AZT in an AZT assay by FPIA (AZT antibodies; relative to AZT)",Polarization Units (P × 1000) [1],ED50 AZT [1],Titer [Ab] [1],Polarization Units (P × 1000) [2],ED50 AZT [2],Titer [Ab] [2],affinity and sensitivity as tracer (AZT antibodies; qualitative),performance as tracer for determination of AZT by FPIA (AZT antibodies; qualitative),inhibition in FPIA for AZT (AZT antibodies; qualitative)
3-carbethoxy-3'-azido-3'-deoxythymidine [Example 21],immunologically active,approximately 110%,,,,,,,,,
"Cc1cn([C@H]2C[C@H](N=[N+]=[N-])[C@@H](CO)O2)c(=O)n(CCNc2nc(Cl)nc(Nc3ccc4c(c3)C(=O)OC43c4ccc(O)cc4Oc4cc(O)ccc43)n2)c1=O [AZT--(CH2)n --NH:DTAF, n=2]",,,162 P × 1000,4.0 µg/mL,250,156 P × 1000,> 8.0 µg/mL,125,,,
Cc1cn([C@H]2C[C@H](N=[N+]=[N-])[C@@H](CO)O2)c(=O)n(CCCCC(=O)Nc2ccc3c(c2)C(=O)OC32c3ccc(O)cc3Oc3cc(O)ccc32)c1=O [Example 6],immunologically active,,179 P × 1000,4.0 µg/mL,300,175 P × 1000,8.0 µg/mL,130,,,
"Cc1cn([C@H]2C[C@H](N=[N+]=[N-])[C@@H](CO)O2)c(=O)n(CCCCC(=O)NCCNC(=S)Nc2ccc3c(c2)C(=O)OC32c3ccc(O)cc3Oc3cc(O)ccc32)c1=O [Example 7, 5-[[5-(3'-azido-3'-deoxythymid-3-yl)-valeramido]-ethylthiocarbamyl]-fluorescein]",,,,,1,197 P × 1000,> 8.0 µg/mL,3,,,
"Cc1cn([C@H]2C[C@H](N=[N+]=[N-])[C@@H](CO)O2)c(=O)n(CCCC(=O)Nc2ccc3c(c2)C(=O)OC32c3ccc(O)cc3Oc3cc(O)ccc32)c1=O [Example 13, 5-[4-(3'-azido-3'-deoxythymid-3-yl)-butyramido]-fluorescein]",,,170 P × 1000,1.3 µg/mL,450,179 P × 1000,3.9 µg/mL,115,satisfactory affinity and sensitivity,,
"Cc1cn([C@H]2C[C@H](N=[N+]=[N-])[C@@H](CO)O2)c(=O)n(CCCC(=O)Nc2ccc3c(c2)C2(OC3=O)c3ccc(O)cc3Oc3cc(O)ccc32)c1=O [Example 14, 6-[4-(3'-azido-3'-deoxythymid-3-yl)-butyramido]-fluorescein]",,,167 P × 1000,0.6 µg/mL,150,159 P × 1000,1.4 µg/mL,74,,,
"Cc1cn([C@H]2C[C@H](N=[N+]=[N-])[C@@H](CO)O2)c(=O)n(CCCC(=O)NCCNC(=S)Nc2ccc3c(c2)C(=O)OC32c3ccc(O)cc3Oc3cc(O)ccc32)c1=O [Example 15, 5-[[4-(3'-azido-3'-deoxythymid-3-yl)-butyramido]-ethylthiocarbamyl]-fluorescein]",Immunological activity against AZT was confirmed,,165 P × 1000,4.0 µg/mL,200,184 P × 1000,4.0 µg/mL,73,,,
"COC(=O)C(Cc1ccc(O)cc1)NC(=O)CCCn1c(=O)c(C)cn([C@H]2C[C@H](N=[N+]=[N-])[C@@H](CO)O2)c1=O (stereo partly drawn) [Example 16, 2-[4-(3'-azido-3'-deoxythymid-3-yl)-butyramido]-3-(4-hydroxyphenyl)-propionic acid methyl ester]",immunologically active,,,,,,,,,,
"COc1nc(NCCn2c(=O)c(C)cn([C@H]3C[C@H](N=[N+]=[N-])[C@@H](CO)O3)c2=O)nc(Nc2ccc3c(c2)C(=O)OC32c3ccc(O)cc3Oc3cc(O)ccc32)n1 [Example 17, 3-[2-[4-(Fluoresceinyl-5)-6-methoxy-s-triazin-2-yl]aminoethyl]-3'-azido-3'-deoxythymidine]",immunologically active,,160 P × 1000,2.5 µg/mL,190,179 P × 1000,4.9 µg/mL,100,,,
"Cc1cn([C@H]2C[C@H](N=[N+]=[N-])[C@@H](CO)O2)c(=O)n(CCCC(=O)NCC(=O)N[C@@H](Cc2ccc(O)cc2)C(=O)O)c1=O [Example 18, N-[4-(3'-azido-3'-deoxythymid-3-yl)-butyryl]-glycyl-L-tyrosine]",immunologically active,,,,,,,,,,
"Cc1cn([C@H]2C[C@H](N=[N+]=[N-])[C@@H](CO)O2)c(=O)n(CC(=O)O)c1=O [Example 19, 3-carboxymethyl-3'-azido-3'-deoxythymidine]",immunological activity,,,,,,,,,,
"Cc1cn([C@H]2C[C@H](N=[N+]=[N-])[C@@H](CO)O2)c(=O)n(CC(=O)Nc2ccc3c(c2)C(=O)OC32c3ccc(O)cc3Oc3cc(O)ccc32)c1=O [Example 22, 5-[2-(3'-azido-3'-deoxythymid-3-yl)-acetamido]-fluorescein]",,,164 P × 1000,1.4 µg/mL,150,150 P × 1000,2.0 µg/mL,105,,,
"Cc1cn([C@H]2C[C@H](N=[N+]=[N-])[C@@H](CO)O2)c(=O)n(CC(=O)NCCNC(=S)Nc2ccc3c(c2)C(=O)OC32c3ccc(O)cc3Oc3cc(O)ccc32)c1=O [Example 23, 5-[[2-(3'-azido-3'-deoxythymid-3-yl)-acetamido]-ethylthiocarbamyl]-fluorescein]",,,173 P × 1000,2.4 µg/mL,53,164 P × 1000,1.4 µg/mL,28,,,
"Cc1cn([C@H]2C[C@H](N=[N+]=[N-])[C@@H](CO)O2)c(=O)n(CCCN2C(=O)c3ccccc3C2=O)c1=O [Example 26, 3-(3-phthalimidopropyl)-3'-azido-3'-deoxythymidine]",immunologically active,,,,,,,,,,
"Cc1cn([C@H]2C[C@H](N=[N+]=[N-])[C@@H](CO)O2)c(=O)n(CCCN)c1=O [Example 28, 3-(3-aminopropyl)-3'-azido-3'-deoxythymidine]",immunologically active,,,,,,,,,,
"Cc1cn([C@H]2C[C@H](N=[N+]=[N-])[C@@H](CO)O2)c(=O)n(CCNC(=S)Nc2ccc3c(c2)C(=O)OC32c3ccc(O)cc3Oc3cc(O)ccc32)c1=O [Example 29, 5-[2-(3'-azido-3'-deoxythymid-3-yl)-ethyl-thiocarbamyl]fluorescein]",,,180 P × 1000,3.9 µg/mL,150,177 P × 1000,2.9 µg/mL,58,,satisfactory tracer,
"Cc1cn([C@H]2C[C@H](N=[N+]=[N-])[C@@H](CO)O2)c(=O)n(CCCNC(=S)Nc2ccc3c(c2)C(=O)OC32c3ccc(O)cc3Oc3cc(O)ccc32)c1=O [Example 30, 5-[3-(3'-azido-3'-deoxythymid-3-yl)-propyl-thiocarbamyl]fluorescein]",,,159 P × 1000,> 4.0 µg/mL,80,170 P × 1000,4.0 µg/mL,80,,satisfactory tracer,
"Cc1cn([C@H]2C[C@H](N=[N+]=[N-])[C@@H](CO)O2)c(=O)n(CCNC(=O)CCc2ccc(O)cc2)c1=O [Example 33, 3-[2-[3-(4-hydroxyphenyl)-propionamido]-ethyl]-3'-azido-3'-deoxythymidine]",,,,,,,,,,,effective inhibitor of polarization
"Cc1cn([C@H]2C[C@H](N=[N+]=[N-])[C@@H](CO)O2)c(=O)n(CCCNC(=S)Nc2ccc3c(c2)C2(OC3=O)c3cc(I)c(O)c(I)c3Oc3c2cc(I)c(O)c3I)c1=O [Example 36, 6-[3-(3 '-amido-3'-deoxythymid-3-yl)-propyl-thiocarbamyl]-erythrosin]",immunologically active,,,,,,,,,,
Cc1cn([C@H]2C[C@H](N=[N+]=[N-])[C@@H](COC(=O)CCC(=O)NCCNC(=S)Nc3ccc4c(c3)C(=O)OC43c4ccc(O)cc4Oc4cc(O)ccc43)O2)c(=O)[nH]c1=O [Example 42],Immunoactivity of this label was demonstrated,,,,,,,,,,
"O=C(O)CCc1ccc(O)cc1 [HPPA, 3-(4-hydroxyphenyl)propionic acid, reference compound]",,,,,,,,,,,"unlike 3-(4-hydroxyphenyl)propionic acid (HPPA), was an effective inhibitor of polarization"
